The values below come from BindingDB's records for doi:10.1016/s0960-894x(02)00382-7 (Novartis Pharma, 2002).

Broadly, the IC50 is the concentration that inhibits the measured activity by half.

This experiment deals with Substance-P receptor (Bos taurus). Kind of experiment: inhibition of [3H]Sar-SP binding to Tachykinin receptor 1 of bovine retina membranes.
Turning to `CN(C(=O)c1cc(C(F)(F)F)cc(C(F)(F)F)c1)c1cc(C(=O)N[C@@H]2CCCCNC2=O)ccc1-c1ccc(Cl)cc1`, the IC50 came out at 2.7 nM. In the case of `COc1cc(C(=O)N(C)c2cc(C(=O)N[C@@H]3CCCCNC3=O)ccc2-c2ccc(Cl)cc2)cc(OC)c1OC` it was 13 nM; in that of `CN(C(=O)c1cc(C(F)(F)F)cc(C(F)(F)F)c1)c1cc(C(=O)N[C@@H]2CCCCNC2=O)ccc1-c1ccc(F)cc1`, 1 nM; in that of `Cc1ccc(-c2ccc(C(=O)N[C@@H]3CCCCNC3=O)cc2N(C)C(=O)c2cc(C(F)(F)F)cc(C(F)(F)F)c2)cc1`, 6 nM.

For the molecule `CN(C(=O)c1cc(C(F)(F)F)cc(C(F)(F)F)c1)c1cc(C(=O)N[C@@H]2CCCCNC2=O)ccc1-c1ccc(Cl)c(Cl)c1`, the IC50 came to 0.8 nM. In the case of `CN(C)CCCNC(=O)c1ccc(-c2ccc(Cl)cc2)c(N(C)C(=O)c2cc(C(F)(F)F)cc(C(F)(F)F)c2)c1` [2-[(3,5-Bis-trifluoromethyl-benzoyl)-methyl-amino]-4'-chloro-biphenyl-4-carboxylic acid (3-dimethylamino-propyl)-amide] it was 1 nM; in that of `CN(C)C(=O)c1ccc(-c2ccc(Cl)cc2)c(N(C)C(=O)c2cc(C(F)(F)F)cc(C(F)(F)F)c2)c1` [2-[(3,5-Bis-trifluoromethyl-benzoyl)-methyl-amino]-4'-chloro-biphenyl-4-carboxylic acid dimethylamide], 4 nM. As for `CN(C(=O)c1cc(C(F)(F)F)cc(C(F)(F)F)c1)c1cc(C(=O)NC2CCCCC2)ccc1-c1ccc(F)cc1` [2-[(3,5-Bis-trifluoromethyl-benzoyl)-methyl-amino]-4'-fluoro-biphenyl-4-carboxylic acid cyclohexylamide], the figure is 34 nM; as for `COc1cc(C(=O)Nc2cc(C(=O)NC3CCCCNC3=O)ccc2-c2ccc(Cl)cc2)cc(OC)c1OC` (centres undefined) [4'-Chloro-2-(3,4,5-trimethoxy-benzoylamino)-biphenyl-4-carboxylic acid (2-oxo-azepan-3-yl)-amide], 0.7 nM.
